Data reported in ChEMBL document CHEMBL1667723, “Biotransformation of turmerones by Aspergillus niger” (J Nat Prod, 2011).

These compounds were tested against T1, Acetylcholinesterase (Homo sapiens, UniProt P22303) (assay: Inhibition of human erythrocytes acetylcholinesterase after 15 mins).
T1 sequence (P22303 whole entry): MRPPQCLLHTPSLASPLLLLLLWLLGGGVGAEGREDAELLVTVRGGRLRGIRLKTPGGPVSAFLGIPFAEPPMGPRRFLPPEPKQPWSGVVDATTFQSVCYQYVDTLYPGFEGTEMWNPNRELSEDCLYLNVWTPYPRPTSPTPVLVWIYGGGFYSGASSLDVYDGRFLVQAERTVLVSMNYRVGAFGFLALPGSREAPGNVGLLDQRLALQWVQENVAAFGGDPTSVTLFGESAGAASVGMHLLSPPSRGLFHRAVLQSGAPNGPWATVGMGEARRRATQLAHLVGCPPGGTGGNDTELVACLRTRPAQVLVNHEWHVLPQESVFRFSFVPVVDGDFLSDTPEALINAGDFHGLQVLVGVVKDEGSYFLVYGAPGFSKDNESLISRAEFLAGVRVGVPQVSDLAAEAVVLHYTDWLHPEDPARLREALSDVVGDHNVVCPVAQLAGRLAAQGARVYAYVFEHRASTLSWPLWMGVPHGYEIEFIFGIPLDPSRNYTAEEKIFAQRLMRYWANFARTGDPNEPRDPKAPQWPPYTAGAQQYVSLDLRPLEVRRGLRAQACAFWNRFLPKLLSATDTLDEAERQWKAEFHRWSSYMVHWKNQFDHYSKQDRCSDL
Compound `CC(C)=CC(=O)C[C@H](C)c1ccc(C)cc1` has an IC50 of 191 µM. `Cc1ccc([C@@H](C)CC(=O)CC(C)C)cc1` showed an IC50 of 81.5 µM.

Each compound was assayed against T1, Acetylcholinesterase (assay: Inhibition of human erythrocytes acetylcholinesterase after 15 mins at 250 uM relative to control).
`C/C(=C\C(=O)C[C@H](C)c1ccc(C(=O)O)cc1)CO` was tested, and the inhibition was 31%. `Cc1coc(C[C@](C)(O)c2ccc(C(=O)O)cc2)c1` gave an inhibition of 33.6%. In the case of `C/C(=C\C(=O)C[C@](C)(O)c1ccc(C(=O)O)cc1)CO`, the inhibition is reported as 34.3%. With `CC(C)(O)CC(=O)CC(C)(O)c1ccc(C(=O)O)cc1` (single isomer, unassigned; (+)) the inhibition was 37.6%. Compound `CC(C)=CC(=O)C[C@](C)(O)c1ccc(C(=O)O)cc1` has an inhibition of 41.9%.
